Data published in US9598396B2, “Tetrahydrophenanthridinones and tetrahydrocyclopentaquinolinones as PARP and tubulin polymerization inhibitors” (Janssen Pharmaceutica NV, priority 2008, dated 2017).

Key:
Assay type in all cases: biochemical
tubulin = assay: Tubulin polymerization assay; details: inhibition of polymerization at 20 μM and 5 μM
Procedure: Example C.5 Polymerization Assay
The tubulin polymerization assay is an adaptation of an assay originally described by Bonne, D. et al. (J. Biol. Chem., 1985, 260:2819-25). The assay kit was purchased from Cytoskeleton, Inc. (catalogue number BK011) and the assay was performed as described by the supplier with the following modifications. The assay was run in a 384-well black Proxiplate (Perkin Elmer) and volumes were adapted accordingly. The reactions were carried out in a final volume of 10 μl. Compounds were added to 25 μl of the reaction mix in 96-well PP plates (Corning) on ice and 10 μl of this mixture was dispensed into duplicates of the 384-well Proxiplates pre-warmed to 37° C. in a Fluoroskan Ascent plate reader (Thermo Scientific). Fluorescence measurements were taken every minute for one hour. The maximum slope of each well was determined (linear regression through 4 consecutive points) and polymerization was calculated as a percentage of polymerization observed in the absence of compound.

TANK-2 enzyme = TANK-2 enzyme (Homo sapiens (Human), UniProt Q9H2K2); assay: In vitro Scintillation Proximity Assay (SPA) for TANK-2 inhibitory activity; details: auto-poly(ADP-ribosyl)ation, [3H]-NAD+, Ni flash plates (96 or 384 well)
Sequence of TANK-2 enzyme (Q9H2K2 whole entry): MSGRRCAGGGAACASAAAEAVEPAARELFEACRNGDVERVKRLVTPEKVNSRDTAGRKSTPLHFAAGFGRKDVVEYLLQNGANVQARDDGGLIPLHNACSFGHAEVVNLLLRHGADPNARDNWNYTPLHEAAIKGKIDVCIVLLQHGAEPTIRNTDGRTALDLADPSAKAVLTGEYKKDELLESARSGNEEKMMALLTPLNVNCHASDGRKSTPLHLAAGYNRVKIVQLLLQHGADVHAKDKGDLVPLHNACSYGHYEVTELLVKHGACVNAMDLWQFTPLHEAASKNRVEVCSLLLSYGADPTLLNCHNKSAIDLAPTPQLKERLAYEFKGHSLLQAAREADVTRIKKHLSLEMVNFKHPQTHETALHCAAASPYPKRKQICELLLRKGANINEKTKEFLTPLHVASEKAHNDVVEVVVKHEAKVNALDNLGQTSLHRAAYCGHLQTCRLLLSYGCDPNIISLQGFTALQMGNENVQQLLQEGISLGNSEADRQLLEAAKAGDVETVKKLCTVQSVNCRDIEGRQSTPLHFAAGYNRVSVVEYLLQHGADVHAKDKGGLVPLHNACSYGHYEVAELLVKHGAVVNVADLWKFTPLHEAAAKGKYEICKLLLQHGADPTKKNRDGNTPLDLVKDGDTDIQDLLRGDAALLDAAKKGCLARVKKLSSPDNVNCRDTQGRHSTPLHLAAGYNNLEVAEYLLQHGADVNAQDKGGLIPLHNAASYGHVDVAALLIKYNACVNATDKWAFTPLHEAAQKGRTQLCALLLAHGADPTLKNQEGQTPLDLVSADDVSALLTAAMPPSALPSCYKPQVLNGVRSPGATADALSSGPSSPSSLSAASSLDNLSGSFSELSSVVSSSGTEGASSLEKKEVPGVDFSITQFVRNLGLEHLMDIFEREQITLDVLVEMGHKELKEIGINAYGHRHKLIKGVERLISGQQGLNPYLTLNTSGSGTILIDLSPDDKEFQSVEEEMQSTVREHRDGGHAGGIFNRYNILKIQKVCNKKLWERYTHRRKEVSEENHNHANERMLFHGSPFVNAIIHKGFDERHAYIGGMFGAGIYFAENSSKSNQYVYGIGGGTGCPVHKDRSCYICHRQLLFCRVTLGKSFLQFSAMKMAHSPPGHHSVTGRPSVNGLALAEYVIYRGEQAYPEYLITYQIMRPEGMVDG
Procedure: C.2.In Vitro Scintillation Proximity Assay (SPA) for TANK-2 Inhibitory Activity
Compounds of the present invention were tested in an in vitro assay based on SPA technology with Ni Flash plates (96 or 384 well).
In principle, the assay relies upon SPA technology for the detection of auto-poly(ADP-ribosyl)ation of TANK-2 protein using [^3H]-nicotinamide adenine dinucleotide ([^3H]-NAD^+) as ADP-ribosyl donor.
A stock solution of 100 nM [^3H]-NAD^+/NAD (0.1 mCi/ml, supplier: Perkin Elmer) and 25 μM NAD (Sigma) was made in assay buffer (60 mM Tris/HCl, pH 7.4; 0.9 mM DTT; 6 mM MgCl2). The TANK-2 enzyme was produced as described in EP1238063. 60 μl of assay buffer, together with 1 μl of compound in DMSO, 20 μl of [^3H]-NAD^+/NAD and 20 μl of TANK-2 enzyme (final concentration 8 μg/ml) was added per well into a 96-well Ni-coated flash plate (Perkin Elmer). After incubation of the mixture for 120 minutes at room temperature, the reaction was terminated by adding 60 μl of stopsolution (42.6 mg NAD in 6 ml H2O). The plates were covered with a plate sealer and placed in a TopCountNXT™ (Packard) for scintillation counting. Values were expressed as counts per minute (cpm). For each experiment, controls (containing TANK-2 enzyme and DMSO without compound), a blank incubation (containing DMSO but no TANK-2 enzyme or compound) and samples (containing TANK-2 enzyme and compound dissolved in DMSO) were run in parallel. All compounds tested were dissolved and eventually further diluted in DMSO. In first instance, compounds were tested at a concentration of 10^−5M. […] In each test, the blank value was subtracted from both the control and the sample values. The control sample represented maximal TANK-2 enzyme activity. For each sample, the amount of cpm was expressed as a percentage of the mean cpm value of the controls. […] Herein the effects of test compounds are expressed as pIC50 (the negative log value of the IC50-value). As reference compounds, 3-aminobenzamide and 4-amino-1,8-naphtalimide were included to validate the SPA assay. Herein the assay was described using 96-well plates. In the assay using 384-well plates the same final concentrations were used and volumes were adapted.

Human PARP-1 enzyme = Human PARP-1 enzyme (Homo sapiens (Human), UniProt P09874); assay: In vitro Scintillation Proximity Assay (SPA) for PARP-1 inhibitory activity; details: nicked DNA activated PARP-1, [3H]-NAD+, biotinylated histones
Sequence of Human PARP-1 enzyme (P09874 whole entry): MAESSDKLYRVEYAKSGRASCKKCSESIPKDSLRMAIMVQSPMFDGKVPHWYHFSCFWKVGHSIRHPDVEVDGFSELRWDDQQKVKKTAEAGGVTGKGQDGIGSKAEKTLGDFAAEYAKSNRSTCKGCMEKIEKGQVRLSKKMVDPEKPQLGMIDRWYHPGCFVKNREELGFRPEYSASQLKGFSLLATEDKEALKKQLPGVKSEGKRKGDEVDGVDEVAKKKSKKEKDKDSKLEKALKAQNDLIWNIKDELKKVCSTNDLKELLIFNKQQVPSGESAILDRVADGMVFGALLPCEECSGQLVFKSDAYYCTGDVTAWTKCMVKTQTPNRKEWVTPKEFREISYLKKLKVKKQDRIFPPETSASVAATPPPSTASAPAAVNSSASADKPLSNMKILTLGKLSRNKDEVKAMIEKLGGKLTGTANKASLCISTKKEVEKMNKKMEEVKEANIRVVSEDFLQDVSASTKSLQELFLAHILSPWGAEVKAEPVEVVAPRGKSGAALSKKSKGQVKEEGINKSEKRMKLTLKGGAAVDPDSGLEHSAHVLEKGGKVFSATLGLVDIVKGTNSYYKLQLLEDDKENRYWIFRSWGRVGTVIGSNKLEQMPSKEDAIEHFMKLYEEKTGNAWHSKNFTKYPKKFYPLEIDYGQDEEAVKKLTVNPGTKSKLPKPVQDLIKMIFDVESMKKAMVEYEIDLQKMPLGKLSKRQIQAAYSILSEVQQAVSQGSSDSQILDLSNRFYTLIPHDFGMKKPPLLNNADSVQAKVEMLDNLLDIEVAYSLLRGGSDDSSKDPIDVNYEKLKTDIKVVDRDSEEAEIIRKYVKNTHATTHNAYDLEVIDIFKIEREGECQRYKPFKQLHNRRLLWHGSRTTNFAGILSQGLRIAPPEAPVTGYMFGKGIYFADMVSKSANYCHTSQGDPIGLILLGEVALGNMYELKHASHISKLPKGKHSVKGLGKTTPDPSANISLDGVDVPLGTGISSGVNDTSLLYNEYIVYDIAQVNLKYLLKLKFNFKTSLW
Procedure: C.1.In Vitro Scintillation Proximity Assay (SPA) for PARP-1 Inhibitory Activity
Compounds of the present invention were tested in an in vitro assay based on SPA technology (proprietary to GE healthcare).
In principle, the assay relies upon the well established SPA technology for the detection of poly(ADP-ribosyl)ation of biotinylated target proteins, i.e histones. This ribosylation is induced using nicked DNA activated PARP-1 enzyme and [^3H]-nicotinamide adenine dinucleotide ([^3H]-NAD^+) as ADP-ribosyl donor.
Histones (type II-A, supplier: Sigma) were biotinylated using the biotinylation kit of Amersham and stored aliquoted at −20° C. A stock solution of 100 mg/ml SPA poly(vinyl toluene) (PVT) beads (supplier: Amersham) was made in PBS. A stock solution of 61.6 nM […] was made by adding [^3H]-NAD^+ (0.1 mCi/ml, supplier: Perkin Elmer) to incubation buffer (50 mM Tris/HCl, pH 8; 0.2 mM DTT; 4 mM MgCl2). A solution of 4 mM NAD^+ (supplier: Sigma) was made. Human PARP-1 enzyme was obtained from Trevigen. Biotinylated histones and PVT-SPA beads were mixed and pre-incubated for 30 minutes at room temperature. PARP-1 enzyme (concentration was lot dependent) was mixed with the nicked DNA and the mixture was pre-incubated for 30 minutes at 4° C. Equal parts of this histones/PVT-SPA beads solution and PARP-1 enzyme/DNA solution were mixed and 75 μl of this mixture together with 1 μl of compound in DMSO and 25 μl of [^3H]-NAD^+was added per well into a 96-well microtiterplate. The final concentrations in the incubation mixture were 2 μg/ml for the biotinylated histones, 2 mg/ml for the PVT-SPA beads, 0.25 μg/ml for the nicked DNA and between 0.1-0.2 μg/ml for the PARP-1 enzyme. After incubation of the mixture for 20 minutes at room temperature, the reaction was terminated by adding 100 μl of 4 mM NAD^+ in water (final concentration 2 mM) and plates were mixed. The beads were sedimented by centrifugation (10 min, 800 rpm) and plates transferred to a TopCountNXT™ (Packard) for scintillation counting, values were expressed as counts per minute (cpm). For each experiment, controls (containing PARP-1 enzyme and DMSO without compound), a blank incubation (containing DMSO but no PARP-1 enzyme, no DNA or compound) and samples (containing PARP-1 enzyme, DNA and compound dissolved in DMSO) were run in parallel. All compounds tested were dissolved and eventually further diluted in DMSO. A dose-response curve was made wherein the compounds were tested at concentrations between 10^−5M and 3×10^−9M. In each test, the blank value was subtracted from both the control and the sample values. The control sample represented maximal PARP-1 enzyme activity. For each sample, the amount of cpm was expressed as a percentage of the mean cpm value of the controls. […] Herein the effects of test compounds are expressed as pIC50 (the negative log value of the IC50-value). As a reference compound, 4-amino-1,8-naphthalimide was included to validate the SPA assay.

Row | Compound | Assay Tubulin Polymerization score (tubulin) | in vitro SPA assay TANK-2 pIC50 (TANK-2 enzyme) | in vitro SPA assay PARP-1 pIC50 (Human PARP-1 enzyme)
1 | CC(C#N)(Cc1ccccc1)c1ccc2c3c(c(=O)[nH]c2c1)CCCC3 (stereo not drawn) [Co. No. 1] | 2 | 7.85 | 7.44
2 | CC(C#N)(Cc1cccc(C#N)c1)c1ccc2c3c(c(=O)[nH]c2c1)CCCC3 (stereo not drawn) [Co. No. 4] | 2 | 7.76 | 9.03
3 | CC(C#N)(Cc1cccc(F)c1)c1ccc2c3c(c(=O)[nH]c2c1)CCCC3 (stereo not drawn) [Co. No. 5] | 2 | 7.71 | 9.01
4 | CC(C#N)(Cc1cccc(C#N)n1)c1ccc2c3c(c(=O)[nH]c2c1)CCCC3 (stereo not drawn) [Co. No. 7] | 3 (a compound showing more than 50% inhibition at 5 μM is reported as score 3) | 8.02 | 8.38
5 | CC(C#N)(Cc1cccc(Cl)c1)c1ccc2c3c(c(=O)[nH]c2c1)CCCC3 (stereo not drawn) [Co. No. 8] | 2 | 7.28 | 7.08
6 | CC(C#N)(CCOc1ccc(C#N)cc1)c1ccc2c3c(c(=O)[nH]c2c1)CCCC3 (stereo not drawn) [Co. No. 17] | 2 | 7.28 | 7.35
